Test results as given in US20070141619A1, “DRUG RESISTANCE-ASSOCIATED GENE AND USE THEREOF” (BANYU PHARMACEUTICAL CO., Ltd., priority 2000, published 2007).
Entries after “also recorded” stand apart in the source; their conditions may differ.

How the values were obtained:
HCT116 = assay: SRB drug sensitivity, HCT116 parental cells; assay type: cell-based; conditions: Homo sapiens, HCT-116, 72 hours with agent
HCT116/NR1 = assay: SRB drug sensitivity, Compound-A-resistant HCT116/NR1; assay type: cell-based, human
Excerpt: An emerging colony was isolated and designated as HCT116/NR1.

PC13 = assay: SRB drug sensitivity, PC-13 parental cells; assay type: cell-based; conditions: Homo sapiens, 72 hours with agent
PC13/NR13 = assay: SRB drug sensitivity, Compound-A-resistant PC-13/NR13; assay type: cell-based, human
HeLaS3 = assay: SRB drug sensitivity, HeLaS3 (Compound-A-sensitive); assay type: cell-based; conditions: Homo sapiens, HeLa S3, 72 hours with agent
HeLa#7 = assay: SRB drug sensitivity, spontaneously resistant HeLa#7; assay type: cell-based, human
LY = assay: SRB drug sensitivity, LY parental fibroblasts; assay type: cell-based; conditions: Mus musculus, Fibroblast, 72 hours with agent
LY/NR1 = assay: SRB drug sensitivity, Compound-A-resistant LY/NR1; assay type: cell-based, mouse
Excerpt: A colony that grew under these conditions was isolated using a cloning ring (Asahi Techno Glass Corporation) and designated as LY/NR1.

LY/NR2 = assay: SRB drug sensitivity, Compound-A-resistant LY/NR2; assay type: cell-based, mouse
Excerpt: An emerging colony was isolated as described above and designated as LY/NR2.

PC-13/Vector = assay: SRB drug sensitivity, PC-13 transfected with vector alone; assay type: cell-based; conditions: Homo sapiens, average ± standard error of three independent experiments
Method: (§1) Test cells in the logarithmic growth phase were dispensed into wells of 96-well plate at 1×10^3 cells/well. After subculture for 24 hours in a CO2 incubator, a serial diluted agent was added to each well. After further incubation for 72 hours, the cells were fixed with trichloroacetic acid (TCA) and the proteins in the cells were stained by 0.4% sulforhodamine B solution. The samples were eluted by 10 mM Tris-HCl for 1 hour, and each well was measured at 560 nm with a 450 nm reference, by a SPECTRAmax 250 plate reader (Molecular Devices Corp.).
(§2) PC-13 cells were transfected with the ABCG2 expression plasmids using Effectene Transfection Reagent (QIAGEN). The experiment was performed according to the attached procedural manual. As a control experiment, other PC-13 cells were transfected with vector alone without the ABCG2 sequence. The two experiments were conducted simultaneously. Two days after the transfection, the original media were replaced with selection media containing 0.2 mg/ml of Geneticin (GIBCO BRL). By culture for a long time under this condition, stable transfectant clones with the introduced plasmids were selected. Two weeks from the transfection, emerging colonies were picked and expression of ABCG2 in the cells was examined by Northern Blot analysis.

ABCG2 [1] = assay: SRB drug sensitivity, PC-13 transfected with ABCG2 (clone 2); assay type: cell-based, human; conditions: human; PC-13/ABCG2-2; average ± standard error of three independent experiments
Method: as §1, §2

PC-13/ABCG2-2 = assay: as above; assay type: cell-based, human
Method: as §1, §2

ABCG2 [2] = assay: SRB drug sensitivity, PC-13 transfected with ABCG2 (clone 3); assay type: cell-based, human; conditions: human; PC-13/ABCG2-3; average ± standard error of three independent experiments
Method: as §1, §2

PC-13/ABCG2-3 = assay: as above; assay type: cell-based, human
Method: as §1, §2

MCF-7/T8 [3] = assay: SRB drug sensitivity, MCF-7 with introduced ABCG2-482T; assay type: cell-based, human; conditions: MCF-7/T8 (ABCG2-482T)
Method: (§3) The full length human ABCG2 cDNA of the present invention prepared in Example 5 was inserted into a plasmid for expression in mammalian cells, followed by transfection of human breast cancer cells, MCF-7 cells, with the ABCG2 expression plasmid using Effectene Transfection Reagent (QIAGEN). Likewise, human breast cancer cells, MCF-7 cells, were transfected with a plasmid including the ABCG2-482T cDNA prepared in Example 10. The experiments were carried out according to an attached procedural manual. As a control experiment, the MCF-7 cells were also transfected with vector alone. The three experiments were conducted simultaneously. Two days from the transfection, the original media were replaced with selective media containing 900 μg/ml of Geneticin (GIBCO BRL). By culture over a prolonged term under this condition, stable transfectant clones with introduced plasmid were selected. Two to three weeks from the transfection, emerging colonies were picked and the expression of ABCG2 in the cells was examined by Northern Blot analysis. Northern Blot analysis was performed as described in Example 4: 8 μg of total RNA prepared from each clone using RNeasy mini kit (QIAGEN) was separated on a formaldehyde denatured agarose gel, followed by analysis using the human ABCG2 cDNA fragment of the present invention as a probe.
(§4) The drug sensitivity of the stable transfectant clones which were established from MCF-7 cells with introduced ABCG2- or ABCG2-482T-expression plasmid, was measured using SRB method as described in Example 2 and the sensitivity of each transfectant to drugs was shown as a relative resistance to the cells with introduced vector alone (FIG. 6).

MCF-7/R7 [4] = assay: SRB drug sensitivity, MCF-7 with introduced ABCG2 of the present invention; assay type: cell-based, human; conditions: MCF-7/R7 (ABCG2 of the present invention), FIG. 6
Method: as §3, §4

MCF-7/T8 [5] = assay: Mitoxantrone accumulation by flow cytometry in MCF-7/T8; assay type: cell-based, human; conditions: 20 μM Mitoxantrone, 90 min, FIG. 7-(b)
Method: (§5) The amount of accumulation of Mitoxantrone in the MCF-7 stable transfectants with introduced ABCG2 of the present invention or ABCG2-482T was measured as follows.
(§6) Cells seeded at 1.0×10^6 cells/well in a 6-well culture plate were incubated for overnight. The next day, the cells in a fresh medium containing 20 μM Mitoxantrone were cultured at 37° C. for 90 min in a CO2 incubator to incorporate the compound into the cells. After a lapse of 90 min, the cells were rapidly chilled on ice, washed once with PBS, detached using 2.5% trypsin. The lysate was centrifuged at 400×g at 4° C. for 3 min to collect the cells. The collected cells were suspended in Hank's Balanced Salt Solutions containing 1% BSA and subjected to fluorimetry of the compound using a flow cytometer, Epics Elite (Beckman Coulter, Inc.). The value was indicated as Intracellular Accumulation (FIG. 7-(b)).

MCF-7/R7 [6] = assay: Mitoxantrone accumulation by flow cytometry in MCF-7/R7; assay type: cell-based, human; conditions: 20 μM Mitoxantrone, 90 min, FIG. 7-(b)
Method: as §5, §6

[7] = system: PC-13 cell lines with introduced ABCG2; assay: SRB drug sensitivity, PC-13 cell lines with introduced ABCG2 (stated jointly); assay type: cell-based, human; conditions: PC-13 cell lines with introduced ABCG2, versus vector alone
Method: as §1, §2

[8] = system: MCF-7 cells expressing introduced BCRP; conditions: report of Doyle et al. 1998; cited from earlier work
MCF-7/T8 [9] = assay: Rhodamine accumulation by flow cytometry in MCF-7/T8; assay type: cell-based, human; conditions: 5 μM Rhodamine, 30 min, FIG. 7-(c)
Method: (§7) The next day, the cells in a fresh medium containing 5 μM Rhodamine were cultured at 37° C. for 30 min in a CO2 incubator to incorporate the compound into the cells. After a lapse of 30 min, the cells were rapidly chilled on ice, washed once with PBS, detached using 2.5% trypsin. […] The collected cells were suspended in Hank's Balanced Salt Solutions with 1% BSA and subjected to fluorometry of the compound using a flow cytometer, FACSCalibur (Becton Dickinson and Company). The value was indicated as Intracellular Accumulation (FIG. 7-(c)).

MCF-7/R7 [10] = assay: Rhodamine accumulation by flow cytometry in MCF-7/R7; assay type: cell-based, human; conditions: 5 μM Rhodamine, 30 min, FIG. 7-(c)
Method: as §7

## O=C1c2c(O)ccc(O)c2C(=O)c2c(NCCNCCO)ccc(NCCNCCO)c21 [Mitoxantrone]
HCT116
  IC50: 7 nM
HCT116/NR1; Homo sapiens, HCT-116, HCT116/NR1, SRB, 72 hours with agent
  IC50: 67 nM
HCT116/NR1; IC50 HCT116/NR1 divided by IC50 HCT116
  RR: Relative Resistance: 9.6
PC13
  IC50: 33 nM
PC13/NR13; Homo sapiens, PC-13, PC13/NR13, SRB, 72 hours with agent
  IC50: 160 nM
PC13/NR13; IC50 PC13/NR13 divided by IC50 PC13
  RR: Relative Resistance: 4.9
HeLaS3
  IC50: 4.4 nM
HeLa#7; Homo sapiens, HeLa#7, SRB, 72 hours with agent
  IC50: 27 nM
HeLa#7; IC50 HeLa#7 divided by IC50 HeLaS3
  RR: Relative Resistance: 6.1
LY
  IC50: 3.3 nM
LY/NR1; IC50 LY/NR1 divided by IC50 LY
  RR: Relative Resistance: 1.5
LY/NR1; Mus musculus, LY/NR1, SRB, 72 hours with agent
  IC50: 7.1 nM
LY/NR2; IC50 LY/NR2 divided by IC50 LY
  RR: Relative Resistance: 17
LY/NR2; Mus musculus, LY/NR2, SRB, 72 hours with agent
  IC50: 57 nM
PC-13/Vector
  IC50: 52 ± 21 nM
ABCG2 [1]
  IC50 at 72 h: 22 ± 8 nM
PC-13/ABCG2-2; IC50 PC-13/ABCG2-2 divided by IC50 of vector cells
  Rel. Res. (relative resistance): 0.42
PC-13/ABCG2-2; PC-13/ABCG2-2, Example 8
  resistance compared to the PC-13 cell with introduced vector alone: 0.42 fold
ABCG2 [2]
  IC50 at 72 h: 31 ± 18 nM
PC-13/ABCG2-3; IC50 PC-13/ABCG2-3 divided by IC50 of vector cells
  Rel. Res. (relative resistance): 0.60
PC-13/ABCG2-3; PC-13/ABCG2-3, Example 8
  resistance compared to the PC-13 cell with introduced vector alone: 0.60 fold
MCF-7/T8 [3]; FIG. 6
  relative resistance to the cells with introduced vector alone: 25 fold
MCF-7/T8 [3]; FIG. 6, listed as mitoxantrone
  relative resistance to the cells with introduced vector alone: showed resistance
MCF-7/R7 [4]
  relative resistance to the cells with introduced vector alone: 3.8 fold
MCF-7/T8 [5]
  Intracellular Accumulation, of that in the cell with introduced vector alone: about 20%
MCF-7/R7 [6]
  Intracellular Accumulation, of that in the cell with introduced vector alone: about 50%
[7]
  resistance of cells in which ABCG2 was forcedly expressed: did not display remarkable resistance; also recorded: not resistant
[8]
  resistance: 30 fold

## Rhodamine
MCF-7/T8 [9]
  Intracellular Accumulation, of that in the cell with introduced vector alone: about 50%
MCF-7/R7 [10]
  Intracellular Accumulation compared with the cell with introduced vector alone: almost the same level
